Data published in publication PMC11818041, “Pilot-Scale Production of Sericin-Derived Oligopeptides (SDOs) from Yellow Silk Cocoons: Peptide Characterization and Specifications” (Foods, 2025).
Read-outs that look alike come from different tables or passages of the source. Marks after values point to notes of the source that are not given here. Residues, ends and D or L forms follow the SMILES beside them.

Assays:
[1] = molecular target: DPP-IV (Homo sapiens, UniProt P27487); assay: DPP-IV inhibitory activity assay (GPN substrate); assay type: biochemical; details: for inhibition at 2500 µM / Inhibition (%) DPP-IV: synthetic peptide at 2.5 mM (final reaction concentration)
[2] = molecular target: ACE (Homo sapiens, UniProt P12821); assay: ACE inhibitory activity assay (FAPGG substrate); assay type: biochemical; details: for inhibition at 200 µM: read-out: Inhibition (%) ACE
[3] = Metal chelating activity (FeCl2/ferrozine); details: reference against which IC50 values were compared
Experimental: Following a 3 min dark incubation, 50 μL of 5 mM ferrozine was introduced and incubated for 20 min at ambient temperature in the absence of light. Absorbance was quantified at 562 nm. […] The chelating activity was determined using the following formula:Metal chelating activity (%) = [(Acontrol − Asample)/Acontrol] × 100

[4] = ABTS radical scavenging activity; details: standard against which IC50 values were compared
Experimental: The antioxidant activity was evaluated using a modified ABTS assay according to Laosam et al.. Then, ABTS stock solution was prepared by combining 7.0 mM ABTS with 2.6 mM potassium persulfate in 50 mM phosphate buffer (pH 7.4) and incubated in darkness for 12–16 h before use. Subsequently, the analysis was initiated by combining 20 μL of SDOs samples with 1980 μL of ABTS working solution (stock solution diluted with phosphate buffer to achieve an absorbance of 0.740 ± 0.020 at 734 nm). After 5 min of incubation in the dark, the absorbance was measured at 734 nm. […] With the formula below, the radical scavenging activity was calculated:Scavenging activity (%) = [(Acontrol − Asample)/Acontrol] × 100 where Acontrol and Asample represent the absorbance of control and sample, respectively.

[5] = parameters: method as in BIOPEP-UWM database; details: fragments in brackets, activities listed jointly; ref BIOPEP-UWM database; cited from earlier work
[6] = synthetic peptide, read-out: Inhibition (IC50 Value) DPP-IV
[7] = synthetic peptide at 0.2 mM (final reaction concentration)
[8] = synthetic peptide, read-out: Inhibition (IC50 Value) ACE

DPP-IV, sequence (P27487 whole entry, species assumed): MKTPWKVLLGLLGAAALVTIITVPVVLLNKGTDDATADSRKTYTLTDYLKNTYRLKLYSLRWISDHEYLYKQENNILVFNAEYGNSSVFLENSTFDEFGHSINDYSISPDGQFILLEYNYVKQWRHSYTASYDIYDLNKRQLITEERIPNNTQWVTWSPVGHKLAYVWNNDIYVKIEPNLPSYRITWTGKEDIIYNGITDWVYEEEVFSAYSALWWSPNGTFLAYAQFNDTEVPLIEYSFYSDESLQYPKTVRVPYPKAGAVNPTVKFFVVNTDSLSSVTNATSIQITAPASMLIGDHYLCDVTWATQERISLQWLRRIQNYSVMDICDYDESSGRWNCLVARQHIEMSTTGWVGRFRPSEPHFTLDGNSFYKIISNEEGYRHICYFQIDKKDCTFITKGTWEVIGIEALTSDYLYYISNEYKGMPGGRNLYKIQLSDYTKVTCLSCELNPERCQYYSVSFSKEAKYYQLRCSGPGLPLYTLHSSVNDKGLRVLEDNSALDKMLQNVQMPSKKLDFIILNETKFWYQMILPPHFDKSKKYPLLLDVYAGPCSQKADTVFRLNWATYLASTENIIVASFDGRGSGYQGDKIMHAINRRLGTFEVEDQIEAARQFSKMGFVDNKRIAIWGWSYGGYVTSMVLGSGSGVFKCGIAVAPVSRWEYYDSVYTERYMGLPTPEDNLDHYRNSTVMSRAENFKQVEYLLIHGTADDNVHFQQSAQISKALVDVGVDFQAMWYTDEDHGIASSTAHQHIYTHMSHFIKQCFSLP
ACE, sequence (P12821 30-1306, species assumed): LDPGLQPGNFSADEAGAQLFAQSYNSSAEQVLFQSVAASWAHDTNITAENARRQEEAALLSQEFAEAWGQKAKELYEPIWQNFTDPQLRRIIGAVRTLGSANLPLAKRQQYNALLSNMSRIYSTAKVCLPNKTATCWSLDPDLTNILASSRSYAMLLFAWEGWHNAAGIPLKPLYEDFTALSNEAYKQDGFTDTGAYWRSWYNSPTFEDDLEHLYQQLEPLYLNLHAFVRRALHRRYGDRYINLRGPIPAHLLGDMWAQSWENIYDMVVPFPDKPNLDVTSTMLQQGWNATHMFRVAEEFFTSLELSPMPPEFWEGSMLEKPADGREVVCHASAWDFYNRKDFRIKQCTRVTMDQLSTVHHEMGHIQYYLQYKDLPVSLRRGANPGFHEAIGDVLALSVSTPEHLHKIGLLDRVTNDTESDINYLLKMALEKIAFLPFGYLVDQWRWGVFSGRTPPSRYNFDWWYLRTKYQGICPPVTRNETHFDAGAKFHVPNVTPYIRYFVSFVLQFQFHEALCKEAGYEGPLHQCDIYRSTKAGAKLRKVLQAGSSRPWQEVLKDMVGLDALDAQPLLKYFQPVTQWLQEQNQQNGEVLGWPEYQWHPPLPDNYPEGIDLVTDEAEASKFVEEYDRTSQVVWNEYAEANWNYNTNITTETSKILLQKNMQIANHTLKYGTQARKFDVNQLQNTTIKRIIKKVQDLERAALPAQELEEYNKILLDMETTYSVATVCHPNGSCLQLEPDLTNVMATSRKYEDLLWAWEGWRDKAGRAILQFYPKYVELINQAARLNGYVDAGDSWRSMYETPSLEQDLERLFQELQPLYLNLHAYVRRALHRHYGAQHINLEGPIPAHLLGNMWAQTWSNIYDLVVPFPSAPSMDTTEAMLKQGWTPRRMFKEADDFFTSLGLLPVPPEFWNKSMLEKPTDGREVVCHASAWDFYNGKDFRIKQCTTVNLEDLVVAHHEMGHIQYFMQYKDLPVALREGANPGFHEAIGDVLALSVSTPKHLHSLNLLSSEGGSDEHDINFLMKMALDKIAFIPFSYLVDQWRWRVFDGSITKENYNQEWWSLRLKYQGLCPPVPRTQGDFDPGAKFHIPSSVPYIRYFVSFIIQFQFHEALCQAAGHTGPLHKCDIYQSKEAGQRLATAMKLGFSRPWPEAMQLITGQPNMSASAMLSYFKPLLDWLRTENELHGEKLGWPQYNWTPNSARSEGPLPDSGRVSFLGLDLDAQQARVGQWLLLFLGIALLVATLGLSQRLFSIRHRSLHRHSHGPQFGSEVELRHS

With `CC(C)C[C@H](NC(=O)[C@H](CC(=O)O)NC(=O)[C@H](Cc1ccccc1)NC(=O)[C@H](Cc1ccccc1)NC(=O)[C@@H](N)CCC(=O)O)C(=O)N1CCC[C@H]1C(=O)N[C@@H](Cc1ccc(O)cc1)C(=O)N[C@@H](Cc1c[nH]cn1)C(=O)O` (H-EFFDLPYH-OH) the inhibition at 2500 µM [1] was 45.7 ± 1.86%, the IC50 [1, 6] was 2760 ± 30 µM and the inhibition at 200 µM [2, 7] was 63.4 ± 1.6%. The IC50 [2, 8] was 158 ± 2.2 µM.

For `CC(C)C[C@H](NC(=O)[C@H](CO)NC(=O)[C@H](C)NC(=O)[C@H](CCC(=O)O)NC(=O)[C@H](C)NC(=O)[C@@H](N)C(C)C)C(=O)N1CCC[C@H]1C(=O)N[C@@H](CCCNC(=N)N)C(=O)O` (H-VAEASLPR-OH), the inhibition at 2500 µM [1] was 55.2 ± 0.69%, the IC50 [1, 6] was 1920 ± 60 µM and the inhibition at 200 µM [2, 7] was 3.89 ± 0.61%.

Work on `CC(C)C[C@H](NC(=O)[C@@H](N)Cc1ccc(O)cc1)C(=O)N[C@@H](Cc1ccc(O)cc1)C(=O)N[C@@H](CC(N)=O)C(=O)N[C@@H](C)C(=O)NCC(=O)N[C@@H](C)C(=O)N[C@@H](CCCNC(=N)N)C(=O)O` (H-YLYNAGAR-OH) yielded an inhibition at 2500 µM [1] of 37 ± 0.95%, an inhibition at 200 µM [2, 7] of 89.2 ± 1.07% and an IC50 [2, 8] of 77.28 ± 0.05 µM.

`N[C@@H](CS)C(=O)N[C@@H](CCC(=O)O)C(=O)N[C@@H](Cc1ccccc1)C(=O)O` [CEF] (H-Cys-Glu-Phe-OH) showed an inhibition at 2500 µM [1] of 23.49 ± 0.14%, an inhibition at 200 µM [2] of 91.67 ± 0.73% and an IC50 [2, 8] of 14.86 ± 0.1 µM.

With `O=C(O)CN(CCN(CC(=O)O)CC(=O)O)CC(=O)O` [EDTA] the “Metal chelating activity, value of the reference” value [3] was 0.31 mg/mL.

Work on `CC(C)C[C@H](NC(=O)[C@H](CC(C)C)NC(=O)[C@H](CC(C)C)NC(=O)[C@H](Cc1ccccc1)NC(=O)[C@@H](N)CCC(=O)O)C(=O)N[C@@H](Cc1c[nH]cn1)C(=O)N[C@@H](C)C(=O)O` [EFLLLHA] (H-EFLLLHA-OH) yielded an inhibition at 2500 µM [1] of 40.5 ± 1.74%, an IC50 [1, 6] of 3570 ± 130 µM and an inhibition at 200 µM [2, 7] of 58.3 ± 0.92%. It also gave an IC50 [2, 8] of 138.3 ± 1.04 µM.

Compound `CC(C)C[C@H](NC(=O)[C@H](CCC(=O)O)NC(=O)[C@H](Cc1ccc(O)cc1)NC(=O)[C@H](Cc1ccccc1)NC(=O)[C@@H](N)CCC(=O)O)C(=O)N[C@@H](C)C(=O)N[C@@H](CCCNC(=N)N)C(=O)O` [EFYELAR] (H-EFYELAR-OH) has an inhibition at 2500 µM [1] of 56.2 ± 1.55%, an IC50 [1, 6] of 1430 ± 30 µM and an inhibition at 200 µM [2, 7] of 34 ± 2.33%.

`CC(C)C[C@H](NC(=O)[C@H](CCC(N)=O)NC(=O)[C@H](CCC(N)=O)NC(=O)[C@H](CO)NC(=O)[C@H](CC(N)=O)NC(=O)[C@@H](N)CCC(=O)O)C(=O)N[C@@H](Cc1c[nH]cn1)C(=O)O` [ENSQQLH] (H-ENSQQLH-OH) showed an inhibition at 2500 µM [1] of 40.4 ± 4.54% and an IC50 [1, 6] of 2540 ± 100 µM.

`CC(C)C[C@H](NC(=O)[C@H](Cc1c[nH]c2ccccc12)NC(=O)[C@@H](NC(=O)[C@H](C)NC(=O)[C@@H](N)CC(C)C)[C@@H](C)O)C(=O)N1CCC[C@H]1C(=O)N[C@@H](CCCNC(=N)N)C(=O)O` [LATWLPR] (H-LATWLPR-OH) showed an inhibition at 2500 µM [1] of 47.4 ± 1.73%, an IC50 [1, 6] of 2030 ± 150 µM and an inhibition at 200 µM [2, 7] of 36.1 ± 0.54%.

`CC(C)C[C@H](N)C(=O)N[C@@H](Cc1ccccc1)C(=O)N[C@@H](CC(=O)O)C(=O)N[C@@H](CCC(N)=O)C(=O)N1CCC[C@H]1C(=O)N[C@@H](Cc1ccc(O)cc1)C(=O)N[C@@H](Cc1ccccc1)C(=O)O` [LFDQPYF] (H-LFDQPYF-OH) showed an inhibition at 2500 µM [1] of 45 ± 2.04%, an IC50 [1, 6] of 3170 ± 170 µM and an inhibition at 200 µM [2, 7] of 42.4 ± 2.64%.

For `CC(C)C[C@H](NC(=O)[C@H](CC(N)=O)NC(=O)CNC(=O)[C@@H](N)CC(C)C)C(=O)N[C@@H](Cc1ccc(O)cc1)C(=O)N[C@@H](CC(=O)O)C(=O)N[C@@H](Cc1ccc(O)cc1)C(=O)O` [LGNLYDY] (H-LGNLYDY-OH), the inhibition at 2500 µM [1] was 42.88 ± 0.09%, the IC50 [1, 6] was 2940 ± 90 µM and the inhibition at 200 µM [2, 7] was 58.6 ± 2.61%. The IC50 [2, 8] was 162.1 ± 1.19 µM.

In the case of `CC(C)C[C@H](NC(=O)[C@H](CC(=O)O)NC(=O)[C@H](Cc1ccccc1)NC(=O)[C@@H](N)CC(N)=O)C(=O)N1CCC[C@H]1C(=O)N[C@@H](Cc1ccc(O)cc1)C(=O)N[C@@H](Cc1c[nH]cn1)C(=O)O` [NFDLPYH] (H-NFDLPYH-OH), the inhibition at 2500 µM [1] is reported as 55.54 ± 0.34%, the IC50 [1, 6] is reported as 2380 ± 30 µM and the inhibition at 200 µM [2, 7] is reported as 69.53 ± 0.03%. The IC50 [2, 8] was 77.2 ± 2.7 µM.

In the case of `Cc1c(C)c2c(c(C)c1O)CCC(C)(C(=O)O)O2` (stereo not shown) [Trolox], the “ABTS radical scavenging, value of the standard” value [4] is reported as 0.27 mg/mL.

Compound `N=C(N)NCCC[C@H](NC(=O)[C@@H]1CCCN1C(=O)[C@H](Cc1ccccc1)NC(=O)[C@H](CCC(=O)O)NC(=O)[C@H](CS)NC(=O)[C@@H](N)Cc1c[nH]c2ccccc12)C(=O)O` [WCEFPR] (H-WCEFPR-OH) has an inhibition at 2500 µM [1] of 41.1 ± 0.43%, an IC50 [1, 6] of 2820 ± 220 µM and an inhibition at 200 µM [2, 7] of 75.4 ± 1.53%. For the same compound, the IC50 [2, 8] was 21.2 ± 1.86 µM.

`CSCC[C@H](NC(=O)[C@@H](N)Cc1c[nH]c2ccccc12)C(=O)N[C@@H](Cc1c[nH]cn1)C(=O)N[C@H](C(=O)N[C@@H](CCCNC(=N)N)C(=O)O)C(C)C` [WMHVR] (H-WMHVR-OH) gave an inhibition at 2500 µM [1] of 33.1 ± 2.67%, an inhibition at 200 µM [2, 7] of 61.3 ± 0.88% and an IC50 [2, 8] of 118 ± 1.82 µM.

Work on `CC(C)C[C@H](NC(=O)[C@H](CC(=O)O)NC(=O)[C@@H]1CCCN1C(=O)[C@@H](N)Cc1ccc(O)cc1)C(=O)N1CCC[C@H]1C(=O)N[C@@H](Cc1ccc(O)cc1)C(=O)N[C@@H](Cc1c[nH]cn1)C(=O)O` [YPDLPYH] (H-YPDLPYH-OH) yielded an inhibition at 2500 µM [1] of 56.9 ± 1.47%, an IC50 [1, 6] of 1350 ± 40 µM and an inhibition at 200 µM [2, 7] of 86 ± 1.66%. For the same compound, the IC50 [2, 8] was 18.1 ± 0.05 µM.

For `CC(C)C[C@H](NC(=O)[C@H](CC(=O)O)NC(=O)[C@@H]1CCCN1C(=O)[C@@H](N)Cc1ccc(O)cc1)C(=O)O` [YPDL] (H-YPDL-OH), the IC50 [1] was 2390 ± 60 µM, the inhibition at 2500 µM [1] was 48.3 ± 0.59% and the IC50 [2] was greater than 200 µM. The inhibition at 200 µM [2, 7] was 11.8 ± 2.26%.

With AEF the “Inhibition (%) DPP-IV” value [1] was 21.93 ± 0.35 ^n % and the “Inhibition (%) ACE” value [2, 7] was 6.04 ± 1.41 ^o %.

With DDK the “Inhibition (%) DPP-IV” value [1] was 37.22 ± 0.43 ^ghij %.

For EFF, the “Inhibition (%) DPP-IV” value [1] was 30.57 ± 1.97 ^kl %.

For EFL, the “Inhibition (%) DPP-IV” value [1] was 38.00 ± 1.38 ^fghi %.

With EFYE the “Inhibition (%) DPP-IV” value [1] was 36.03 ± 0.51 ^ghij %.

In the case of LFD, the “Inhibition (%) DPP-IV” value [1] is reported as 33.85 ± 1.27 ^ijk %.

For “LFDLMEH [SDO peptide identified in fraction F8]”, the “Inhibition (%) DPP-IV” value [1] was 37.28 ± 0.69 ^ghij %.

With LGN the “Inhibition (%) DPP-IV” value [1] was 35.84 ± 0.09 ^hij % and the “Inhibition (%) ACE” value [2, 7] was 44.11 ± 0.96 ^g %.

In the case of MED, the “Inhibition (%) DPP-IV” value [1] is reported as 38.87 ± 0.64 ^fghi %.

With MEH the “Inhibition (%) DPP-IV” value [1] was 37.20 ± 3.18 ^ghij % and the “Inhibition (%) ACE” value [2, 7] was 11.20 ± 0.04 ^n %.

In the case of NPR, the “Inhibition (%) DPP-IV” value [1] is reported as 36.70 ± 0.09 ^ghij % and the “Inhibition (%) ACE” value [2, 7] is reported as 17.84 ± 0.68 ^k %.

With PYH the “Inhibition (%) DPP-IV” value [1] was 29.97 ± 0.60 ^kl % and the “Inhibition (%) ACE” value [2, 7] was 15.69 ± 1.82 ^klm %.

In the case of QTA, the “Inhibition (%) DPP-IV” value [1] is reported as 10.54 ± 1.90 ^o % and the “Inhibition (%) ACE” value [2, 7] is reported as 16.48 ± 1.26 ^kl %.

In the case of “QTALVELLQ [SDO peptide identified in fraction F1]”, the “Inhibition (%) DPP-IV” value [1] is reported as 22.20 ± 0.26 ^n %.

With WGWNPR the “Inhibition (%) DPP-IV” value [1] was 37.45 ± 1.55 ^ghij % and the “Inhibition (%) ACE” value [2, 7] was 23.69 ± 2.90 ^j %.

In the case of YDY, the “Previous Reported Bioactivity of the Fragments (BIOPEP-UWM Database)” value [5] is listed as “(YDY) Antioxidative”.
